Each molecule was assayed against T1, USP1/UAF1 (Homo sapiens, UniProt O94782) (assay: Deubiquitination assay for USP1/UAF1 (ubiquitin-rhodamine 110 substrate)). Details: 0.5 nM USP1/UAF1, 150 nM ubiquitin-rhodamine, 50% inhibition compared to DMSO control.
T1 construct: purchased R&D Systems
Format: biochemical
Experimental: Deubiquitination assay for USP1/UAF1: compounds described here were tested for their ability to inhibit USP1 deubiquitinase activity in this assay using ubiquitin-rhodamine 110 as the substrate. The assay was conducted in the assay buffer (50 mM Tris-HCl, pH 7.8, 0.5 mM EDTA, 0.1 mg/ml Bovine Serum Albumin, 1 mM DTT, 0.01% Tween-20) in 384 well plates. 0.5 nM USP1/UAF1 (R&D Systems) was incubated with compounds in dose response format for 10 minutes at room temperature. Then the reaction was initiated by addition of 150 nM ubiquitin-rhodamine (R&D Systems). The fluorescence intensity was read after 45 minutes at Ex488/Em535 by CLARIOstar (BMG Labtech). IC50 response curves were plotted.

T1 sequence (O94782 whole entry): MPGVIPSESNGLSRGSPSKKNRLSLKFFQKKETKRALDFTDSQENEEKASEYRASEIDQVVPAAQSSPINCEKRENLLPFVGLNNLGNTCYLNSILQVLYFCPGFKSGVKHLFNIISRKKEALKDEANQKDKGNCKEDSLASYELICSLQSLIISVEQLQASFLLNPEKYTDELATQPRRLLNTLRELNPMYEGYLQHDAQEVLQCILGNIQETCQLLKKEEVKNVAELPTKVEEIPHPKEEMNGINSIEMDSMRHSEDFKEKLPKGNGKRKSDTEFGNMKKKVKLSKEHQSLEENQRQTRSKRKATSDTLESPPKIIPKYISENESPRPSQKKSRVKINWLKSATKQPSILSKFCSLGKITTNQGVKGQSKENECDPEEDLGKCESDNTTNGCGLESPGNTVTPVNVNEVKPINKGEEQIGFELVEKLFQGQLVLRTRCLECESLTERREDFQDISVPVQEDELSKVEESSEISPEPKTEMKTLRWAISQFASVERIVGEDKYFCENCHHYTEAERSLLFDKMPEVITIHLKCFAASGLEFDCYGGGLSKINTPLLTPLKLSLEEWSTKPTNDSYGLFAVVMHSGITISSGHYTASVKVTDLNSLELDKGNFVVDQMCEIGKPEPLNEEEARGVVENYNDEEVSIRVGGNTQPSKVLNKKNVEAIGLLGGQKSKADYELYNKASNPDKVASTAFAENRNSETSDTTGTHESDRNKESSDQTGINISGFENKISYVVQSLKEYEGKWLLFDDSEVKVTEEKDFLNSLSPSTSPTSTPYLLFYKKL
T1 sequence (Q8TAF3 whole entry partner): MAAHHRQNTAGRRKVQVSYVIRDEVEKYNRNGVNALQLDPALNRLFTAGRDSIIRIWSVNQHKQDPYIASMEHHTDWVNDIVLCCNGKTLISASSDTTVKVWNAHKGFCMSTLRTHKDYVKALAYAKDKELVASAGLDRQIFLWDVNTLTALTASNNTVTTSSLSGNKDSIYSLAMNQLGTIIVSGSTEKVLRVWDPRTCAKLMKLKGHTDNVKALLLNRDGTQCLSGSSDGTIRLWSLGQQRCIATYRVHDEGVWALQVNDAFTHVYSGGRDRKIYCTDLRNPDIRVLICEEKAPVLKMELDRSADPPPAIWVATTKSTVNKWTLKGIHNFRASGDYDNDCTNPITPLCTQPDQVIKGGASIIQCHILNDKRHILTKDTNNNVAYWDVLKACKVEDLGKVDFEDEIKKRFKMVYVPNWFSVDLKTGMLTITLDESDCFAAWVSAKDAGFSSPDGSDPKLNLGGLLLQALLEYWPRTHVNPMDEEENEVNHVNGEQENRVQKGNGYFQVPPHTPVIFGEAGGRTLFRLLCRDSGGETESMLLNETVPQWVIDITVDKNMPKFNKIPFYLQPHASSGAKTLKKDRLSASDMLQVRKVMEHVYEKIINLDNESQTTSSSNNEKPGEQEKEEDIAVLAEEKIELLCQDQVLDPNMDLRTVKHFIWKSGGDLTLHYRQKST

Row | Molecule | IC50
1 | 1^6-cyclopropyl-4^4-(1-isopropyl-4-(trifluoromethyl)-1H-imidazol-2-yl)-2^1H-9-oxa-5-aza-2(6,1)-pyrazolo[3,4-d]pyrimidina-1(5,4)-pyrimidina-4(1,2)-benzenacyclononaphan-6-one [Example 15] | ≥ 1 µM
2 | CC(C)n1cc(C(F)(F)F)nc1-c1ccc2cc1NCCOc1ncnc(C3CC3)c1-c1ncc3cnn(c3n1)C2 [Example 40, 1^6-cyclopropyl-4^4-(1-isopropyl-4-(trifluoromethyl)-1H-imidazol-2-yl)-2H-8-oxa-5-aza-2(6,1)-pyrazolo[3,4-d]pyrimidina-1(5,4)-pyrimidina-4(1,3)-benzenacyclooctaphane] | ≤ 0.1 µM
3 | CC(C)n1cc(C(F)(F)F)nc1-c1ccc2c(c1)CCOc1ncnc(C3CC3)c1-c1ncc3cnn(c3n1)C2 [Example 4, 1^6-cyclopropyl-4^4-(1-isopropyl-4-(trifluoromethyl)-1H-imidazol-2-yl)-2^1H-7-oxa-2(6,1)-pyrazolo[3,4-d]pyrimidina-1(5,4)-pyrimidina-4(1,2)-benzenacycloheptaphane] | ≥ 1 µM

Results, then the molecule that gave them:

Row | IC50 | Molecule
4 | ≤ 0.1 µM | CC(C)n1cc(C(F)(F)F)nc1-c1ccc2c(c1)NCCCOc1ncnc(C3CC3)c1-c1ncc3ccc(n3n1)C2 [Example 33, (Z)-1^6-cyclopropyl-4^4-(1-isopropyl-4-(trifluoromethyl)-1H-imidazol-2-yl)-9-oxa-5-aza-2(2,7)-pyrrolo[2,1-f][1,2,4]triazina-1(5,4)-pyrimidina-4(1,2)-benzenacyclononaphane]
5 | ≤ 0.1 µM | CC(C)n1cc(C(F)(F)F)nc1-c1ccc2cc1/C=C/CCOc1ncnc(C3CC3)c1-c1ncc3cnn(c3n1)C2 [Example 44, (E)-1^6-cyclopropyl-4^4-(1-isopropyl-4-(trifluoromethyl)-1H-imidazol-2-yl)-2^1H-9-oxa-2(6,1)-pyrazolo[3,4-d]pyrimidina-1(5,4)-pyrimidina-4(1,3)-benzenacyclononaphan-5-ene]
6 | ≤ 0.1 µM | FC(F)(F)c1cn(C2CC2)c(-c2ccc3c(c2)/C=C/COc2ncnc(C4CC4)c2-c2ncc4cnn(c4n2)C3)n1 [Example 57]
7 | ≤ 0.1 µM | Cc1cnc2nc1NCc1ccc(-c3nc(C(F)(F)F)cn3C(C)C)cc1OCCOc1ncnc(C3CC3)c1-2 [Example 1, 1^6-cyclopropyl-5^4-(1-isopropyl-4-(trifluoromethyl)-1H-imidazol-2-yl)-2^5-methyl-6,9-dioxa-3-aza-1(5,4),2(2,4)-dipyrimidina-5(1,2)-benzenacyclononaphane]
